# Data published in patent publication US8592368B2, “JAK/STAT inhibitors and MAPK/ERK inhibitors for RSV infection” (University of South Florida, priority 2003, dated 2013).
# Columns and labels:
# STAT-1α = STAT-1α phosphorylation in RSV-infected A549 cells (immunoblot); type: cell-based, human; conditions: for RSV-induced STAT-1α phosphorylation: A549 cells pre-incubated with AG490 (50 μM) or PD98059 for 4 hours, then RSV, densitometry of Western blot
# Method: (§1) FIGS. 4A-4F that blocking STAT-1α attenuates RSV gene transcription and infection. A549 cells were treated with 50 µM AG490 for 4 hours before being exposed to supRSV for 30 minutes. Lysates were separated by SDS-PAGE and immunoblotted using antibodies to phospho-STAT-1α and STAT-1α. The total number of syncytia-forming plaques (PFU/ml) was counted 72 hours post-infection. Each value represents means SEM (N=3, *p<0.001). Cell proliferation was determined by viable cell counts. A549 cells were cotransfected with the pRL-TK plasmid and either the WT (pRc/CMV STAT-1α) (lanes 1 and 2) or DN mutant (pRc/CMV STAT-1α) (Y701F) (lanes 3 and 4) and then exposed to supRSV for 30 minutes. Lysates were separated by SDS-PAGE and immunoblotted for phospho-STAT-1α or STAT-1α. A549 cells were transfected with WT or DN-STAT-1α constructs and 24 hours later exposed to RSV for 30 minutes. RSV replication was measured by RT-PCR analysis of N protein gene expression. The percentage of infected cells was determined using immunofluorescence in cells transfected with WT or DN-STAT-1α. The values are means SEM (*p<0.001).
# FIGS. 8A-8D show the effects of inhibitors of phosphorylation of STAT-1α and ERK-1/2. In FIG. 8A, AG490- or PD98059-treated A549 cells were infected with RSV for 15 minutes. Total proteins were Western-blotted using specific anti-phospho antibodies to STAT-1α, ERK-1/2 or IκBα. Lane 1: mock-infected, lanes 2-4: RSV infected for 30 minutes, lane 3: cells treated with 50 μM of AG490 prior to RSV infection, lane 4: cells treated with 25 μM of PD98059 for 4 hours prior RSV infection. In FIG. 8B, the bands were quantified by densitometry and the relative intensity of phosphoSTAT-1α, phospho-ERK and phospho-IκBα with respect to uninfected control (lane 1) was determined. The experiment was repeated twice and the result of a representative experiment is shown. […] A549 cells were co-transfected with RL-TK plasmid and either the WT (pRc/CMV-STAT-1α) (lanes 3 and 4) or DN mutant (pRc/CMV-STAT-1α) (Y701F) (lanes 5 and 6) and were infected with RSV for 30 minutes after 24 hours of transfection. […] In FIG. 8D, the bands were quantified by densitometry and the relative intensity of phospho-ERK and ERK was determined in each band. […]
# Immunoblotting was carried out as previously described (Behera, A. K. et al. Biochem. Biophys. Res. Commun., 1998, 251(3): 704-709). After transfer, membranes were blocked with 5% non-fat dried milk, incubated with antibody to a specific STAT protein or to the corresponding phospho-STAT protein (NEW ENGLAND BIOLABS, Beverly, Mass.), secondary antibody conjugated to horseradish peroxidase was added, and immunocomplexes detected by enhanced chemiluminescence (NEW ENGLAND BIOLABS, Beverly, Mass.). […]
# ERK-1/2 = ERK-1/2 phosphorylation in RSV-infected A549 cells (immunoblot); type: cell-based, human
# Method: Proteins were isolated from untreated cells (lane 1) or cells infected with RSV for 30 minutes (lanes 2-6) after pretreatment of cells for 30 minutes with heparinase (lane 3) or heparin (lane 5), or infected with virus pretreated with heparinase (lane 4) or heparin (lane 6) prior to addition to the cells. Proteins were separated by SDS-PAGE, blotted and probed with anti-phospho ERK-1/2 and then re-probed with anti-ERK-1/2.
# FIGS. 8A-8D show the effects of inhibitors of phosphorylation of STAT-1α and ERK-1/2. In FIG. 8A, AG490- or PD98059-treated A549 cells were infected with RSV for 15 minutes. Total proteins were Western-blotted using specific anti-phospho antibodies to STAT-1α, ERK-1/2 or IκBα. Lane 1: mock-infected, lanes 2-4: RSV infected for 30 minutes, lane 3: cells treated with 50 μM of AG490 prior to RSV infection, lane 4: cells treated with 25 μM of PD98059 for 4 hours prior RSV infection. In FIG. 8B, the bands were quantified by densitometry and the relative intensity of phosphoSTAT-1α, phospho-ERK and phospho-IκBα with respect to uninfected control (lane 1) was determined. The experiment was repeated twice and the result of a representative experiment is shown. […] A549 cells were co-transfected with RL-TK plasmid and either the WT (pRc/CMV-STAT-1α) (lanes 3 and 4) or DN mutant (pRc/CMV-STAT-1α) (Y701F) (lanes 5 and 6) and were infected with RSV for 30 minutes after 24 hours of transfection. Total proteins were extracted and Western-blotted using antibodies to phospho-STAT-1α, phospho-ERK-1/2 and re-probed with antibodies to STAT-1α or ERK-1/2. In FIG. 8D, the bands were quantified by densitometry and the relative intensity of phospho-ERK and ERK was determined in each band. […]
# Whole cell protein extracts were prepared by lysing cells in 50 mM HEPES, 150 mM NaCl, 1 mM EDTA, 1 mM EGTA, 10% glycerol, 0.5% NP-40, 0.1 mM phenylmethylsulfonyl fluoride, 2.5 μg/ml leupeptin, 0.5 mM NaF, and 0.1 mM sodium vanadate. […] The antibody reactions were detected by enhanced chemiluminescence using LUMIGLO (CELL SIGNALLING TECHNOLOGY). […]
# RSV [1] = conditions: treatment of cells; Feldman et al. 1999; cited from earlier work
# RSV [2] = test: RSV plaque assay (syncytia-forming plaques, HEp-2 cell-based); design: species or system respiratory syncytial virus; conditions: A549 cells, AG490 pretreatment, plaques counted 72 hours post-infection
# Method: as §1, with “(*p<0.001). […]” for “(*p<0.001).”
# A549 cells = type: cell-based, human
# Method: as §1
# To rule out the possibility that this effect on viral replication is due to diminished cell proliferation, viable cells were enumerated at 12, 24, 48, and 72 hours after treatment with inhibitors.
# IκBα = IκBα phosphorylation in RSV-infected A549 cells (immunoblot); type: cell-based, human; conditions: A549 cells pre-incubated with AG490 (50 μM) or PD98059 for 4 hours, then RSV
# Method: FIGS. 8A-8D show the effects of inhibitors of phosphorylation of STAT-1α and ERK-1/2. In FIG. 8A, AG490- or PD98059-treated A549 cells were infected with RSV for 15 minutes. Total proteins were Western-blotted using specific anti-phospho antibodies to STAT-1α, ERK-1/2 or IκBα. Lane 1: mock-infected, lanes 2-4: RSV infected for 30 minutes, lane 3: cells treated with 50 μM of AG490 prior to RSV infection, lane 4: cells treated with 25 μM of PD98059 for 4 hours prior RSV infection. In FIG. 8B, the bands were quantified by densitometry and the relative intensity of phosphoSTAT-1α, phospho-ERK and phospho-IκBα with respect to uninfected control (lane 1) was determined. The experiment was repeated twice and the result of a representative experiment is shown. […] In FIG. 8D, the bands were quantified by densitometry and the relative intensity of phospho-ERK and ERK was determined in each band. […]
# Whole cell protein extracts were prepared by lysing cells in 50 mM HEPES, 150 mM NaCl, 1 mM EDTA, 1 mM EGTA, 10% glycerol, 0.5% NP-40, 0.1 mM phenylmethylsulfonyl fluoride, 2.5 μg/ml leupeptin, 0.5 mM NaF, and 0.1 mM sodium vanadate. […] The antibody reactions were detected by enhanced chemiluminescence using LUMIGLO (CELL SIGNALLING TECHNOLOGY).
# rgRSV = rgRSV infection of primary NHBE cells (fluorescent images); type: cell-based, respiratory syncytial virus; conditions: AG490 50 μM or PD98059 80 μM 2 hours before rgRSV, images after 16 hours
# Method: FIGS. 10A-10F show the effects of STAT and ERK-1/2 inhibitors on RSV infection of NHBE cells. NHBE cells were treated with either AG490 (50 μM) (FIGS. 10C and 10D) or PD98059 (80 μM) (FIGS. 10E and 10F) for 2 hours. DMSO was used as a mock control (FIGS. 10A and 10B). After inhibitor removal, cells were infected with rgRSV for 2 hours. Then, rgRSV was removed and growth medium with inhibitors was added to the cells for 16 hours before fluorescent images (DMSO, FIG. 10B; AG490, FIG. 10D; PD98059, FIG. 10F) as well as light transmission images (DMSO, FIG. 10A; AG490, FIG. 10C; PD98059, FIG. 10E) were taken.
# RSV A2 strain was obtained from the American Type Culture Collection (ATCC, Rockville, Md., USA). In some experiments, rgRSV (an engineered RSV expressing enhanced green fluorescent protein) was used. A549 cell line, representing type II alveolar epithelial cells, was obtained from the ATCC. The cells were grown at 37° C. in 5% CO2 in RPMI medium, supplemented with 10% fetal bovine serum. Normal human bronchial epithelial cells (NHBE) were obtained from CAMBREX (Walkersville, Md., USA) and grown in serum-free bronchial epithelium growth medium supplemented as indicated by the manufacturer. NHBE at passage 2 and 3 was used for the experiments.
# A549 cells were incubated with AG490 (50 μM) or PD98059 (80 μM) for 4 hours at 37° C. and then infected with RSV. […]
# RSV [3] = test: Immunofluorescence count of RSV-infected A549 cells; type: cell-based, respiratory syncytial virus; conditions: A549 cells treated with PD98059, 24 hours of RSV infection, vs control
# Method: as §1, with “The values are means SEM (*p<0.001).” left out
# In FIG. 9A, PD98059- or DMSO-treated A549 cells were infected with RSV. […] The RSV titers were determined using a HEP-2 cell-based plaque assay as described. […] Twenty-four hours after transfection, A549 cells were infected with RSV for 90 minutes and 24 hours after the % of infected cells was determined with FITC-RSV antibody. […]
# HIV-1 = conditions: Yang and Gabuzda 1999; cited from earlier work
Compound,"RSV-induced activation of STAT-1 (STAT-1α; A549 cells or RSV pretreated with heparin 1000 U/ml or heparinase 10 U/ml, RSV 30 minutes)","RSV-induced activation of ERK-1/2 (ERK-1/2; A549 cells, heparin pretreatment, RSV 30 minutes)",ERK-1/2 phosphorylation induced by pretreated RSV (ERK-1/2; RSV pretreated with heparin or heparinase before addition to A549 cells),RSV infection (RSV [1]),RSV-induced STAT-1α phosphorylation (STAT-1α),"phosphorylation of STAT-1α (STAT-1α; A549 cells preincubated with AG490 for 4 hours, then supRSV 30 minutes, vs untreated controls)",RSV infection by plaque assay (PFU/ml) (RSV [2]),cytotoxic or anti-proliferative effects (viable cell counts) (A549 cells),"ERK activation (phospho-ERK-1/2) (ERK-1/2; A549 cells pre-incubated with AG490 50 μM, then RSV)",IκBα phosphorylation (IκBα),number of infected cells (rgRSV),percentage of infected cells (RSV [3]),infectivity of HIV-1 virions (HIV-1)
heparin,abolished,abolished the RSV-induced activation of ERK-1/2,did not induce ERK-1/2 phosphorylation,blocks RSV infection,,,,,,,,,
N#C/C(=C/c1ccc(O)c(O)c1)C(=O)NCc1ccccc1 [AG490],,,,,decrease in RSV-induced STAT-1K phosphorylation,decreased phosphorylation of STAT-1α,significantly (p<0.001) decreased RSV infection,no cytotoxic or anti-proliferative effects,failed to inhibit ERK activation,decrease,significant reduction in the number of infected cells,,
COc1cccc(-c2cc(=O)c3ccccc3o2)c1N [PD98059],,,,,significantly affected the phosphorylation,,,,,significantly affected the phosphorylation,significant reduction in the number of infected cells,decrease in the percentage of infected cells,reduced the infectivity of HIV-1 virions
